In ChEMBL document CHEMBL3784917, “Recent Progress in Histone Demethylase Inhibitors” (J Med Chem, 2016):

Experiments:
[1] = target: T1, Lysine-specific demethylase 4B (Homo sapiens, UniProt O94953); experiment: Inhibition of human N-terminal GST-tagged KDM4B (1 to 500 residues) expressed in baculovirus infected sf9 cells using biotinylated histone H3 as substrate preincubated for 10 mins followed by substrate addition measured after 10 mins by AlphaLisa assay
T1 sequence (O94953 whole entry): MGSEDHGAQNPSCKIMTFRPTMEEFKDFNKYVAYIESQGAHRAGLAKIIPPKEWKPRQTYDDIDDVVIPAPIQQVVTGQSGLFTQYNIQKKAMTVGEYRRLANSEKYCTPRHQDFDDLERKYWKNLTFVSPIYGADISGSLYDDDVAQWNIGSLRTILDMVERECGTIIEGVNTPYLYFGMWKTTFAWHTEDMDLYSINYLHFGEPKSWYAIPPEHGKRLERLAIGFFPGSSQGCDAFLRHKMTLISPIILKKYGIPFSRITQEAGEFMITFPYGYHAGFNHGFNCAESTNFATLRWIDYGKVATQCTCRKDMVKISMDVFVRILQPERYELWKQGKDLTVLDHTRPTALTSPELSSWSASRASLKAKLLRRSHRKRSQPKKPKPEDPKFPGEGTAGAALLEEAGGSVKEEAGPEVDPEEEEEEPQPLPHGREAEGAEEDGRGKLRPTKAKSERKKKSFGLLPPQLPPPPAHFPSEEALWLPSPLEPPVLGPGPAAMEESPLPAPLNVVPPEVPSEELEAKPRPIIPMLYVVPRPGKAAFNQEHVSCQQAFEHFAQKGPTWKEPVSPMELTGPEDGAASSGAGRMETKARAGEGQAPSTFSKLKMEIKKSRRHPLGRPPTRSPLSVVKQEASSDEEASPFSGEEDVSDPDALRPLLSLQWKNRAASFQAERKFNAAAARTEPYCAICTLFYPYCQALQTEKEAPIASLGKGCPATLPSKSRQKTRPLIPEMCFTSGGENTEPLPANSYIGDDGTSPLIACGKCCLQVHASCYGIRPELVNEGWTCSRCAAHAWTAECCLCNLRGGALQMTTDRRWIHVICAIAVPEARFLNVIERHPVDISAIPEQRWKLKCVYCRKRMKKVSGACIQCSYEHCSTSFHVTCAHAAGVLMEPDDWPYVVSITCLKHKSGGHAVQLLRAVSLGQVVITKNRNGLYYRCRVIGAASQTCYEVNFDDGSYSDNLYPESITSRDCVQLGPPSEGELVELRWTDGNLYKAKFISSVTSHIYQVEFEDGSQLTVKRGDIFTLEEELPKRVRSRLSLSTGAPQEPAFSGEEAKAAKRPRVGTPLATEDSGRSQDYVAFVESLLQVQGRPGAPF

[2] = target: Lysine-specific demethylase 6A (Homo sapiens, UniProt O15550)
MCF7 = experiment: Antiproliferative activity against human MCF7 cells assessed as reduction in cell viability after 120 hrs by ATPlite assay; type: functional, cell-based; conditions: MCF7, 120 h
[3] = target: Lysine-specific demethylase 5B (Homo sapiens, UniProt Q9UGL1)
[4] = target: T2, Lysine-specific demethylase 4C (Homo sapiens, UniProt Q9H3R0)
T2 sequence (Q9H3R0 whole entry): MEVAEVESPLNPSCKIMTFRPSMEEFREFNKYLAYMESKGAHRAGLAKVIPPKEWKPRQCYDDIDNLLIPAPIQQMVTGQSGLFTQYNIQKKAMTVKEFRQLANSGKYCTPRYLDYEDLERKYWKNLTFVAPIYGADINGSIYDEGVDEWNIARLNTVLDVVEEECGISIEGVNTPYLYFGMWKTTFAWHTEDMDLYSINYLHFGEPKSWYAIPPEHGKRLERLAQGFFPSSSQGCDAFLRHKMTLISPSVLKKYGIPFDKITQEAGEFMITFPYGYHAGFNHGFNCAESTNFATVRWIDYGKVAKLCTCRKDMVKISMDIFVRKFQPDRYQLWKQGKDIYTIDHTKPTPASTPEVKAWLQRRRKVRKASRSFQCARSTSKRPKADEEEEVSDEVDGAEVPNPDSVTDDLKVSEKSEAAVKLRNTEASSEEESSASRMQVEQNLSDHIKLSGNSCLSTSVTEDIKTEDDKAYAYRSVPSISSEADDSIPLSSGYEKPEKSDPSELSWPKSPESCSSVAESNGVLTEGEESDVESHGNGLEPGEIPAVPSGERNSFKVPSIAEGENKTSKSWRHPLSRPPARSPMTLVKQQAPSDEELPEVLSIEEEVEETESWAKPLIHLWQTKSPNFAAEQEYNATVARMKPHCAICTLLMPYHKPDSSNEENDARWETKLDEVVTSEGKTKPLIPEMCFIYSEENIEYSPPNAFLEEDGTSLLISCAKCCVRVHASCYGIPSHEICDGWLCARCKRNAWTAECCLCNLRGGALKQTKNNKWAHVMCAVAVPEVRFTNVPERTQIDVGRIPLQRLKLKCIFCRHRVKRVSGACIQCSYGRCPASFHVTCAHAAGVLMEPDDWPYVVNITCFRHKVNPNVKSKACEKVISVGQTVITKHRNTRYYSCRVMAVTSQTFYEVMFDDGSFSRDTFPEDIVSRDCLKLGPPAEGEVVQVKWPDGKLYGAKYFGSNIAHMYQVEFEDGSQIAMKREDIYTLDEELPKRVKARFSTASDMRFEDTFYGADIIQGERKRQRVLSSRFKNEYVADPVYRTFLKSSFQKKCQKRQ

[5] = target: Lysine-specific demethylase 6B (Homo sapiens, UniProt O15054); experiment: biochemical
Chain of Lysine-specific demethylase 6B (O15054 whole entry): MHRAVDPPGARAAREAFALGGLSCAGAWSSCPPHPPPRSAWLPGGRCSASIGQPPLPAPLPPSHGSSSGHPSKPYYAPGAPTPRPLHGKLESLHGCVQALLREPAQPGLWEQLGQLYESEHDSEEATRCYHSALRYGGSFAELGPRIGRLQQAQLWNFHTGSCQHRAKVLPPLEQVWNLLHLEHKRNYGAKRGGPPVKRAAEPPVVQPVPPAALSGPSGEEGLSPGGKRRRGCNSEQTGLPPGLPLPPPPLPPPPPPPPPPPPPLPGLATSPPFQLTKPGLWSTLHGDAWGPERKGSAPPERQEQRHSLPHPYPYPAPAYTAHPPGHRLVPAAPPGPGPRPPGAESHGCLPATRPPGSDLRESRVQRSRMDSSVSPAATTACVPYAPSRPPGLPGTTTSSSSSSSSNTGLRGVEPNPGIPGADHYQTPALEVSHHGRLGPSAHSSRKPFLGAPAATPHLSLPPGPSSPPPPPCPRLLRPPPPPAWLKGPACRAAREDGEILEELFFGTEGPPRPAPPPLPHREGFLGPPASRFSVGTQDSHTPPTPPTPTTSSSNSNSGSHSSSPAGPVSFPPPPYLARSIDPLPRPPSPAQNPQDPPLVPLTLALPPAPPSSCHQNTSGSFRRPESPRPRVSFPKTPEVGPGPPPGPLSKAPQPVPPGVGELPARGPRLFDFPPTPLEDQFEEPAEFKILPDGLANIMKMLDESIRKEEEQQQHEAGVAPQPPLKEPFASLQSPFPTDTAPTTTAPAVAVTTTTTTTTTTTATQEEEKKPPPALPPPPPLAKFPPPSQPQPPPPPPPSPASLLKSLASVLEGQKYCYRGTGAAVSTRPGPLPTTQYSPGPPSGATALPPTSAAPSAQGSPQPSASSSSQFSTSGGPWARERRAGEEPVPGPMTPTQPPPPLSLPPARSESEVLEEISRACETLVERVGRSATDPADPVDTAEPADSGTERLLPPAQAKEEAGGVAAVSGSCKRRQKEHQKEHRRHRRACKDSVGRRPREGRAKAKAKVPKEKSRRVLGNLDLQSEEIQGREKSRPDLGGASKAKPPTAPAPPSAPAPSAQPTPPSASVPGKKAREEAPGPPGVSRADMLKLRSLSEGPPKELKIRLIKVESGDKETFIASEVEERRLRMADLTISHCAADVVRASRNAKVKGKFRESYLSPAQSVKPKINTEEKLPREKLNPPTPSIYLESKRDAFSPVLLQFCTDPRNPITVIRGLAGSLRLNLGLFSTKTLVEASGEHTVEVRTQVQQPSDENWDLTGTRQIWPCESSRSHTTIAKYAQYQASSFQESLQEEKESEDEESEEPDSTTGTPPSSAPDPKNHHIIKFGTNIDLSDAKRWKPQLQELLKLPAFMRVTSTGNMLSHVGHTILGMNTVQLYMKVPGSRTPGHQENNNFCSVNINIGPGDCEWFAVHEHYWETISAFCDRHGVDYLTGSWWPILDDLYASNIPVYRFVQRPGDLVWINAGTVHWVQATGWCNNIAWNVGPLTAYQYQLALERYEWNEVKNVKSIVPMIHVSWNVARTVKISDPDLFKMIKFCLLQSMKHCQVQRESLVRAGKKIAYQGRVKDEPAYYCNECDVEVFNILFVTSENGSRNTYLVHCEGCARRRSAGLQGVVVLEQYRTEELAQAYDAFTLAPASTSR

Chain of Lysine-specific demethylase 6A (O15550 whole entry): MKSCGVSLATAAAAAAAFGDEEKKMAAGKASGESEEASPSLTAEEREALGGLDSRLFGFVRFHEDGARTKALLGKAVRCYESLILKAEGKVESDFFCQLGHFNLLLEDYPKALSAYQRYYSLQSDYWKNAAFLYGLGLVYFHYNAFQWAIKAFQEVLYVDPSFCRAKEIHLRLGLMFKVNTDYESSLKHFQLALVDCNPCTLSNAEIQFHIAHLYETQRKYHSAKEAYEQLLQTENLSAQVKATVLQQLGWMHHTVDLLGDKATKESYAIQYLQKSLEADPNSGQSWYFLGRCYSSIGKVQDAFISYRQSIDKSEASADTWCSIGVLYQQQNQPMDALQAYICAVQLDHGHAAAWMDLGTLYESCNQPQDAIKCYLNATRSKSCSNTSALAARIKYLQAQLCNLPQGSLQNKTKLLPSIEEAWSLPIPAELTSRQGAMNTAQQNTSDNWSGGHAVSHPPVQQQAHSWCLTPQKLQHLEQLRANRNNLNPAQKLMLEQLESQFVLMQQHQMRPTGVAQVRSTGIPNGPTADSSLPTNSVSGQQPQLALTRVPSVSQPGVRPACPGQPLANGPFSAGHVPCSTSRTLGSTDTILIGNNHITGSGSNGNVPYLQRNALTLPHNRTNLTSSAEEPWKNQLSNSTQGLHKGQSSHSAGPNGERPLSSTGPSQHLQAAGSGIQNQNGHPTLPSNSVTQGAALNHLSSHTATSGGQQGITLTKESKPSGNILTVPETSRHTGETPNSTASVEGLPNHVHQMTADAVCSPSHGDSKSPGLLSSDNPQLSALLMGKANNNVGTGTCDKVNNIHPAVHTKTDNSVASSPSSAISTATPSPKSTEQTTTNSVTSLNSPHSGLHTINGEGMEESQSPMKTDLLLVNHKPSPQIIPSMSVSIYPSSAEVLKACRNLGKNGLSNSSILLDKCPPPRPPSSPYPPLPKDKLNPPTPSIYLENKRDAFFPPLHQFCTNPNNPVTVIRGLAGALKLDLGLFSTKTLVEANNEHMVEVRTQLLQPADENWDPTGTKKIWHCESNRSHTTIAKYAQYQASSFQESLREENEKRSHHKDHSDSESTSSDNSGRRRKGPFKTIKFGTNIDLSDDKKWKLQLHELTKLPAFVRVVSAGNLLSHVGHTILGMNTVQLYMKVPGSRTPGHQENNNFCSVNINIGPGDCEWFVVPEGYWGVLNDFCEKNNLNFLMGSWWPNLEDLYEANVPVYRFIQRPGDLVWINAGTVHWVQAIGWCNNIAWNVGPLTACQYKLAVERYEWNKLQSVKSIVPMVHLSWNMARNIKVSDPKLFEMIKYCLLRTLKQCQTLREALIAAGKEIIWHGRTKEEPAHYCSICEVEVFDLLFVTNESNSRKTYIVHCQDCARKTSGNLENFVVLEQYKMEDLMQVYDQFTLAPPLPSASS
Chain of Lysine-specific demethylase 5B (Q9UGL1 whole entry): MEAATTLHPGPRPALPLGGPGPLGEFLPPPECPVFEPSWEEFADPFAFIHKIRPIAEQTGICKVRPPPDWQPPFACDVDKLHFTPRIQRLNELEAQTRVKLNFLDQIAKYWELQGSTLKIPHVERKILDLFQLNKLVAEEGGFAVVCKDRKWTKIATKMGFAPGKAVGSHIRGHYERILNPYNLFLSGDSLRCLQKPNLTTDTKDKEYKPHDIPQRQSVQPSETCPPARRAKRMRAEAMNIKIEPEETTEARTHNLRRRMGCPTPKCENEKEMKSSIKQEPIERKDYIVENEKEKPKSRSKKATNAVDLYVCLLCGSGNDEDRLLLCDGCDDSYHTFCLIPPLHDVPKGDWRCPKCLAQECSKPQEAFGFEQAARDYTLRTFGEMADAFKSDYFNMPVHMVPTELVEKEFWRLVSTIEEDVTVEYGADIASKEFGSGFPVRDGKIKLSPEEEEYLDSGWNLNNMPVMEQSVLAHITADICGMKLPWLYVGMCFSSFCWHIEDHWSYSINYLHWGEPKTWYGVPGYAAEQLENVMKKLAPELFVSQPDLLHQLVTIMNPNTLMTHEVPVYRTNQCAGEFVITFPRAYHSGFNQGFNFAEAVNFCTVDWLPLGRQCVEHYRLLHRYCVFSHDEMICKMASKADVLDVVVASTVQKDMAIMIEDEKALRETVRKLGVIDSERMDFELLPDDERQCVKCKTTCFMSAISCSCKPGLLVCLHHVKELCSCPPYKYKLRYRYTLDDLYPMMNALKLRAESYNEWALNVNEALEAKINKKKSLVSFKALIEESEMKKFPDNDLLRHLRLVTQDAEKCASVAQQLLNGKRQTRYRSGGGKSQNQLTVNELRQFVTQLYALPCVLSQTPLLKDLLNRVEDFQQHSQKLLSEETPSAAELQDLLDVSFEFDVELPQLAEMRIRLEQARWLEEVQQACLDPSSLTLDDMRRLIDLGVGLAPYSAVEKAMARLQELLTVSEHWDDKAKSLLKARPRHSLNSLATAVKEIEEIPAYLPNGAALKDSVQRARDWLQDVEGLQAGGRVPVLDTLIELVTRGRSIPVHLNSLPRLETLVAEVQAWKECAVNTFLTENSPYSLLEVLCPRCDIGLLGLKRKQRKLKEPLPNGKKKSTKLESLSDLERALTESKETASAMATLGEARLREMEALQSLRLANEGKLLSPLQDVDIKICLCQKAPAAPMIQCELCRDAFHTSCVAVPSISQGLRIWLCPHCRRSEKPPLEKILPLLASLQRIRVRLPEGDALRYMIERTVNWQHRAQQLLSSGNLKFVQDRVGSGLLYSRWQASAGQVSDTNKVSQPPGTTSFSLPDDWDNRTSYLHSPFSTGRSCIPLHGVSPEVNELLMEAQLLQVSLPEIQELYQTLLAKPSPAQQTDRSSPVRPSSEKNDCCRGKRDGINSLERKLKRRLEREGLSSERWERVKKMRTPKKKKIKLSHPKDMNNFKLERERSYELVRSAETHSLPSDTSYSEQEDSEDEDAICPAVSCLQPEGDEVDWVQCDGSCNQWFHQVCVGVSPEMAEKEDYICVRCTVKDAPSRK

Row | IC50 [1] | IC50 [2] | EC50 (MCF7) | IC50 [3] | IC50 [4] | IC50 [5] | IC50 (MCF7) | Structure (SMILES)
1 | < 250 nM | > 2500 nM | < 250 nM | < 250 nM | > 2500 nM | > 2500 nM | – | CCN(CC)CCCCNCc1cc(C=O)ccn1
2 | < 100 nM | > 1000 nM | – | < 100 nM | < 100 nM | > 1000 nM | 1000 nM | CCN(CCN(C)C)C(=O)CNCc1cc(C(=O)O)ccn1
3 | > 2500 nM | > 2500 nM | – | 250 nM | > 2500 nM | > 2500 nM | – | CCN(CCN(C)C)C(=O)CNCc1cc(CNC(=O)C(F)(F)F)ccn1
